How the values were obtained:
C57BL/6 mice = experiment: Reduction of serum iron by Fpn127 in C57BL/6 mice; assay type: in vivo, mouse; conditions: naïve C57BL/6 mice; for Serum iron: 4 h post dosing; for Serum iron (hypoferremia sustained): 8 h post dosing
Method: FIG. 2: Serum iron levels in naïve C57BL/6 mice treated with Fpn127 at 120 mg/kg or 300 mg/kg for 4 h or 8 h. Vehicle was 0.5% methylcellulose in water
To determine the dose of Fpn127 that causes sustained serum iron reduction, C57BL/6 mice received either 120 mg/kg or 300 mg/kg of Fpn127 po for 4 h or 8 h.

guinea pigs = conditions: cited from earlier work
[1] = i.v. dosing after RBC transfusion

SMILES	Serum iron (C57BL/6 mice; 120 mg/kg po)	Serum iron (hypoferremia sustained) (C57BL/6 mice; 120 mg/kg po)	Serum iron (C57BL/6 mice; 300 mg/kg po)	Serum iron (hypoferremia sustained) (C57BL/6 mice; 300 mg/kg po)	Hb levels following exchange transfusion (guinea pigs; [1])	NTBI levels following exchange transfusion (guinea pigs; [1])	Total iron in kidneys following transfusion (guinea pigs; [1])	Occurrence of changes in plasma creatinine >0.3 mg/dL (indicator of early AKI) (guinea pigs; i.v. dosing, transfused animals)	Cellular injury (guinea pigs; i.v. immediately after acute red blood cell transfusions)
O=C(NCc1ncccc1F)c1coc(CCNCCc2nc3ccccc3[nH]2)n1 [Fpn127]	reduced significantly	only the dose of 300 mg/kg sustained the hypoferremia	reduced significantly	sustained the hypoferremia	–	–	–	–	–
O=C(NCc1ncccc1F)c1csc(CCNCc2nc3ccccc3[nH]2)n1 [VIT-2653]	–	–	–	–	significantly improved	significantly improved	can be reduced	significantly reduced	attenuation of cellular injury
